Test results from patent US4472409A, “2-Pyridylmethyl thio(sulfinyl)benzimidazoles with gastric acid secretion inhibiting effects” (Byk Gulden Lomberg Chemische Fabrik Gesellschaft mit …, priority 1981, dated 1984).

Assays:
[1] = system: gastric ulcers provoked by a pylorus ligature (Shay rat); test: Protective action on the stomach: antiulcerogenic test in the Shay rat (pylorus ligature + oral 100 mg/kg acetylsalicylic acid), reduction of ulcer index; type: in vivo; details: for Protective action on the stomach (rat), reduction in the ulcer index: 1 hour before pylorus ligature; for Protective action on the stomach (rat), ED25 / ED25: dose reducing ulcer index by 25% vs control; for Protective action on the stomach (rat), ED25 / Protective action on the stomach (rat), ED50 / ED25 / ED50: logarithmic interpolation; for Protective action on the stomach (rat), ED50 / ED50: dose reducing ulcer index by 50% vs control; for ED25 / ED50: Rattus norvegicus, po
Procedure: The effect of the compounds according to the invention on the formation of gastric ulcers provoked by a pylorus ligature (4 hours, so-called Shay rat) and oral administration of 100 mg/kg acetylsalicylic acid and on the inhibition of gastric secretion in rats during 4 hours is shown in the following table:
(§1) The antiulcerogenic action was tested in accordance with the method using the so-called Shay rat: Rats (female, 180 to 200 g, 4 animals per cage on a high grid) which had been fasted for 24 hours were subjected to ulcer provocation by pylorus ligature (under diethyl ether anaesthesia) and oral administration of 100 mg/10 ml/kg of acetylsalicyclic acid. The substances to be tested are administered orally (10 ml/kg) 1 hour before the pylorus ligature. The wound is closed by means of Michel clamps. 4 hours thereafter, the animals are killed under ether anaesthesia by atlas dislocation, and the stomach is removed. The stomach is opened longitudinally and fixed to a cork tile after the amount of gastric juice secreted [volume, and its hydrochloric acid content (titration with sodium hydroxide solution)] has been determined, the number and size (=diameter) of ulcers present are determined with a stereomicroscope with 10-fold magnification. The product of the degree of severity (according to the following rating scale) and the number of ulcers serves as the individual ulcer index.
The reduction in the average ulcer index of each treated group compared with that of the control group (=100%) serves as a measure of the antiulcerogenic effect. The ED25 and the ED50 designate the doses which reduce the average ulcer index and the gastric secretion by 25 and 50%.

[2] = system: gastric secretion (HCl-secretion of the rat stomach); test: Gastric secretion inhibition (HCl-secretion over 4 hours) in the Shay rat; type: in vivo; details: for Gastric secretion (rat), inhibition in % of HCl-secretion: 4 hours; for Gastric secretion (rat), ED25 / ED25: dose reducing HCl secretion (sum 4 hours) by 25% vs control; for ED25 / ED50: Rattus norvegicus, po
Procedure: as §1, with “index. The reduction in the average ulcer index of each treated group compared with that of the control group (=100%) serves as a measure of the antiulcerogenic effect. The ED25 and the ED50 designate the doses which reduce the average ulcer index and the gastric secretion by 25 and 50%.” for “index.”

[3] = dose reducing HCl secretion (sum 4 hours) by 50% vs control, logarithmic interpolation

4-Trifluoromethyl-2-[(4-methoxy-2-pyridylmethyl)sulfinyl]-(1H)-benzimidazole [Example 1]
Protective action on the stomach (rat), reduction in the ulcer index ([1]; dose 0.1 mg/kg p.o.): +1% | Protective action on the stomach (rat), reduction in the ulcer index ([1]; dose 0.3 mg/kg p.o.): 12% | Protective action on the stomach (rat), reduction in the ulcer index ([1]; dose 1.0 mg/kg p.o.): 27% | Protective action on the stomach (rat), reduction in the ulcer index ([1]; dose 3.0 mg/kg p.o.): 58% | Protective action on the stomach (rat), ED25 [1]: 0.9 mg/kg, p.o. | Protective action on the stomach (rat), ED50 [1]: 2.3 mg/kg, p.o. | Gastric secretion (rat), inhibition in % of HCl-secretion ([2]; dose 0.1 mg/kg p.o.): 5% | Gastric secretion (rat), inhibition in % of HCl-secretion ([2]; dose 0.3 mg/kg p.o.): 9% | Gastric secretion (rat), inhibition in % of HCl-secretion ([2]; dose 1.0 mg/kg p.o.): 15% | Gastric secretion (rat), inhibition in % of HCl-secretion ([2]; dose 3.0 mg/kg p.o.): 22% | Gastric secretion (rat), ED25 ([2]; logarithmic interpolation): ≥ 3.0 mg/kg, p.o.

5-Trifluoromethyl-2-[(4-methoxy-3,5-dimethyl-2-pyridylmethyl)thio]-(1H)-benzimidazole [Example 8]
Protective action on the stomach (rat), reduction in the ulcer index ([1]; dose 1.0 mg/kg p.o.): 50% | Protective action on the stomach (rat), reduction in the ulcer index ([1]; dose 3.0 mg/kg p.o.): 63% | Protective action on the stomach (rat), ED25 [1]: < 1.0 mg/kg, p.o. | Protective action on the stomach (rat), ED50 [1]: 1.0 mg/kg, p.o. | Gastric secretion (rat), inhibition in % of HCl-secretion ([2]; dose 1.0 mg/kg p.o.): 12% | Gastric secretion (rat), inhibition in % of HCl-secretion ([2]; dose 3.0 mg/kg p.o.): 50% | Gastric secretion (rat), ED25 ([2]; logarithmic interpolation): 1.5 mg/kg, p.o. | Gastric secretion (rat), ED50 [2, 3]: 3.0 mg/kg, p.o.

COc1ccnc(C[S+]([O-])c2nc3cc(C(F)(F)F)ccc3[nH]2)c1 (stereo not drawn) [Serial No. 2, 5-Trifluoromethyl-2-[(4-methoxy-2-pyridylmethyl)sulfinyl]-(1H)-benzimidazole]
ED25 [1]: 0.24 mg/kg | ED50 [1]: 0.45 mg/kg | Protective action on the stomach (rat), reduction in the ulcer index ([1]; dose 0.1 mg/kg p.o.): 6% | Protective action on the stomach (rat), reduction in the ulcer index ([1]; dose 0.3 mg/kg p.o.): 29% | Protective action on the stomach (rat), reduction in the ulcer index ([1]; dose 1.0 mg/kg p.o.): 88% | Protective action on the stomach (rat), reduction in the ulcer index ([1]; dose 3.0 mg/kg p.o.): 100% | ED25 ([2]; logarithmic interpolation): 0.35 mg/kg | ED50 [2, 3]: 0.75 mg/kg | Gastric secretion (rat), inhibition in % of HCl-secretion ([2]; dose 0.1 mg/kg p.o.): 0% | Gastric secretion (rat), inhibition in % of HCl-secretion ([2]; dose 0.3 mg/kg p.o.): 18% | Gastric secretion (rat), inhibition in % of HCl-secretion ([2]; dose 1.0 mg/kg p.o.): 60% | Gastric secretion (rat), inhibition in % of HCl-secretion ([2]; dose 3.0 mg/kg p.o.): 84%

COc1ccnc(C[S+]([O-])c2nc3cc(C(F)(F)F)ccc3[nH]2)c1C (stereo not drawn) [Serial No. 3, 5-Trifluoromethyl-2-[(4-methoxy-3-methyl-2-pyridylmethyl)sulfinyl]-(1H)--benzimidazole]
ED25 [1]: 0.3 mg/kg | ED50 [1]: 0.45 mg/kg | Protective action on the stomach (rat), reduction in the ulcer index ([1]; dose 0.3 mg/kg p.o.): 25% | Protective action on the stomach (rat), reduction in the ulcer index ([1]; dose 1.0 mg/kg p.o.): 98% | Protective action on the stomach (rat), reduction in the ulcer index ([1]; dose 10.0 mg/kg p.o.): 100% | ED25 ([2]; logarithmic interpolation): < 0.3 mg/kg | ED50 [2, 3]: 0.4 mg/kg | Gastric secretion (rat), inhibition in % of HCl-secretion ([2]; dose 0.3 mg/kg p.o.): 40% | Gastric secretion (rat), inhibition in % of HCl-secretion ([2]; dose 1.0 mg/kg p.o.): 88% | Gastric secretion (rat), inhibition in % of HCl-secretion ([2]; dose 10.0 mg/kg p.o.): 92%

COc1c(C)cnc(C[S+]([O-])c2nc3cc(C(F)(F)F)ccc3[nH]2)c1C (stereo not drawn) [Serial No. 4, 5-Trifluoromethyl-2-[(4-methoxy-3,5-dimethyl-2-pyridylmethyl)sulfinyl]-(1H)-benzimidazole]
ED25 [1]: 0.24 mg/kg | ED50 [1]: 0.55 mg/kg | Protective action on the stomach (rat), reduction in the ulcer index ([1]; dose 0.1 mg/kg p.o.): 1% | Protective action on the stomach (rat), reduction in the ulcer index ([1]; dose 0.3 mg/kg p.o.): 30% | Protective action on the stomach (rat), reduction in the ulcer index ([1]; dose 1.0 mg/kg p.o.): 69% | Protective action on the stomach (rat), reduction in the ulcer index ([1]; dose 3.0 mg/kg p.o.): 89% | ED25 ([2]; logarithmic interpolation): 0.48 mg/kg | ED50 [2, 3]: 1 mg/kg | Gastric secretion (rat), inhibition in % of HCl-secretion ([2]; dose 0.1 mg/kg p.o.): +5% | Gastric secretion (rat), inhibition in % of HCl-secretion ([2]; dose 0.3 mg/kg p.o.): 10% | Gastric secretion (rat), inhibition in % of HCl-secretion ([2]; dose 1.0 mg/kg p.o.): 50% | Gastric secretion (rat), inhibition in % of HCl-secretion ([2]; dose 3.0 mg/kg p.o.): 75%

COc1ccnc(CSc2nc3cc(C(F)(F)F)ccc3[nH]2)c1 [Serial No. 6, 5-Trifluoromethyl-2-[(4-methoxy-2-pyridylmethyl)thio]-(1H)-benzimidazole]
ED25 [1]: ~1 mg/kg | ED50 [1]: 1.4 mg/kg | Protective action on the stomach (rat), reduction in the ulcer index ([1]; dose 1.0 mg/kg p.o.): 27% | Protective action on the stomach (rat), reduction in the ulcer index ([1]; dose 3.0 mg/kg p.o.): 97% | ED25 ([2]; logarithmic interpolation): 1.2 mg/kg | ED50 [2, 3]: 2 mg/kg | Gastric secretion (rat), inhibition in % of HCl-secretion ([2]; dose 1.0 mg/kg p.o.): 15% | Gastric secretion (rat), inhibition in % of HCl-secretion ([2]; dose 3.0 mg/kg p.o.): 70%

COc1ccnc(CSc2nc3cc(C(F)(F)F)ccc3[nH]2)c1C [Serial No. 7, 5-Trifluoromethyl-2-[(4-methoxy-3-methyl-2-pyridylmethyl)thio]-(1H)-benzimidazole]
ED25 [1]: ≤ 0.3 mg/kg | ED50 [1]: 0.5 mg/kg | Protective action on the stomach (rat), reduction in the ulcer index ([1]; dose 0.3 mg/kg p.o.): 30% | Protective action on the stomach (rat), reduction in the ulcer index ([1]; dose 1.0 mg/kg p.o.): 94% | ED25 ([2]; logarithmic interpolation): 0.3 mg/kg | ED50 [2, 3]: 0.5 mg/kg | Gastric secretion (rat), inhibition in % of HCl-secretion ([2]; dose 0.3 mg/kg p.o.): 26% | Gastric secretion (rat), inhibition in % of HCl-secretion ([2]; dose 1.0 mg/kg p.o.): 85%
